# Measured values from patent US20080076147A1, “BIOFILM SAMPLING DEVICE” (BOARD OF TRUSTEES OF SOUTHERN ILLINOIS UNIVERSITY, priority 2006, published 2008).
# What was measured:
# Burkholderia cepacia = experiment: Biocide kill of planktonic cells and biofilm on vascular catheter (serum flow model); format: cell-based; settings: 5 to 60 minutes; for biofilm kill (biocide concentration required to kill 50% of bacteria that grew in the biofilm): biofilm on vascular catheter, FIG. 11B; for planktonic cell kill (biocide concentration required to kill 100% of bacteria present as planktonic cells): planktonic cells on vascular catheter, FIG. 11A
# From the text: (§1) A system as shown in FIG. 6 was used in this study. Serum and a biocide were placed in sealed bottles as the first fluid source 505 and the second fluid source 509, respectively. The fluid sources were connected to a pump 515 by conventional IV tubing. A second pump 531 was used to deliver the fluid mixture to the vascular catheter 3 positioned in the sampling apparatus 1.
# (§2) Initially, only the first fluid source, serum inoculated with Acinetobacter baumanii (10×10^9 CFU/ml), was used to contaminate the catheter with planktonic cells. The inoculated fluid continuously flowed through IV tubing directly through the catheter for […] to form a layer of planktonic cells on the catheter. Fluid flow was then stopped and the tubing was then reconfigured as shown in FIG. 6 so that the second fluid source could be introduced. In these test runs, the first fluid source was inoculated with the same concentration of bacteria, and the second fluid source was a biocide (16-16,000 ppm) selected from hydrogen peroxide (H2O2), sodium hypochlorite (SHC), peracetic acid (PAA) and gluteraldehyde (GLT). The fluid mixture continuously flowed through the catheter for 5, 10, 15, 30, 45 or 60 minutes before fluid flow was discontinued to determine bacterial resistance of the planktonic cells on the catheter. In all, six runs were completed for each of four different biocides. After each run, the test catheter was then cut aseptically into 1 cm segments. The segments were transferred to test tubes containing one ml saline and the adherent cells were dislodged by sonication in an aquasonic device, vortexed for about one minute, and then counted on Tropic soya Agar. The number of viable cells were determined for each catheter and were compared to the number of viable cells in control samples (i.e., biocide-free serum) to calculate the biocide concentration required to kill 50% of the bacteria in the biofilm at the same time interval. Instead of saline, other appropriate buffer solutions can be used. In addition to plating cells on agar and counting the number of colonies, the amount of biofilm formed can be determined by a semiquantitive microtiter plate method. For example, adherent cells can be dislodged from test catheters as described above. The aliquots of solutions containing the cells from each catheter piece can then be added separately to wells of a 96-well tissue culture plate and incubated at 37° C. for 24 h. After several (e.g., three) washes with PBS, any remaining biofilm is stained with safranin O dye for 1 min and washed with PBS again. Optical density at 492 nm is determined with a 96-well plate spectrometer reader. For each time point, an aliquot without biocide is a positive control. Percent inhibition of biofilm accumulation can be determined from the formula (A492positive−A492biocide)/(A492positive−A492)×100%, Such plating methods are well known to one skilled in the art and could be modified as desired for analysis of the biofilm.
# (§3) For determination of the bacterial resistance of the biofilm formed on the catheter, the method described above was repeated using the same conditions except that the inoculated fluid continuously flowed through the catheter for two hours before fluid flow was discontinued to form a biofilm on the catheter.
# The experiment was repeated as described above, except that Burkholderia cepacia (1×10^9 CFU/ml) was used to inoculate the serum.
# Pseudomonas aeruginosa = experiment: as above; format: cell-based; settings: 5 to 60 minutes; for biofilm kill (biocide concentration required to kill 50% of bacteria that grew in the biofilm): biofilm on vascular catheter, FIG. 16B; for planktonic cell kill (biocide concentration required to kill 100% of bacteria present as planktonic cells): planktonic cells on vascular catheter, FIG. 16A
# From the text: as §1, §2, §3
# The experiment was repeated as described above, except that Pseudomonas aeruginosa (1×10^9 CFU/ml) was used to inoculate the serum.
# [1] = system: Stenotrophomonas maltophilia; experiment: as above; format: cell-based; settings: 5 to 60 minutes; for biofilm kill (biocide concentration required to kill 50% of bacteria that grew in the biofilm): biofilm on vascular catheter, FIG. 17B; for planktonic cell kill (biocide concentration required to kill 100% of bacteria present as planktonic cells): planktonic cells on vascular catheter, FIG. 17A
# From the text: as §1, §2, §3
# The experiment was repeated as described above, except that Stenotrophomonas maltophilia (1×10^9 CFU/ml) was used to inoculate the serum.
# [2] = system: methicillin resistant Staphylococcus aureus (MRSA); experiment: as above; format: cell-based; settings: biofilm on vascular catheter, 5 to 60 minutes, FIG. 14B
# Staphylococcus epidermis = experiment: as above; format: cell-based; settings: 5 to 60 minutes; for biofilm kill (biocide concentration required to kill 50% of bacteria that grew in the biofilm): biofilm on vascular catheter, FIG. 15B; for planktonic cell kill (biocide concentration required to kill 100% of bacteria present as planktonic cells): planktonic cells on vascular catheter, FIG. 15A
# From the text: as §1, §2, §3
# The experiment was repeated as described above, except that Staphylococcus epidermis (1×10^9 CFU/ml) was used to inoculate the serum.
# Enterococcus faecalis = experiment: as above; format: cell-based; settings: at 5 minutes of treatment; phase (planktonic or biofilm) not specified, FIGS. 13A-B
# MRSA [3] = experiment: Mucin in controlling colonization of MRSA in endotracheal tube model; format: cell-based, Staphylococcus aureus; settings: for log10 reduction of colonized MRSA: 48 hours flow, endotracheal tube
# From the text: A system as shown in FIG. 7 was used in this study. Artificial saliva was placed in a sealed bottle as the second fluid source 609. The first fluid source was provided by an oxygen tank used to saturate the artificial saliva with oxygen. A pump 631 was used to deliver the saliva to an endotracheal tube 3 positioned in the sampling apparatus 1.
# (§4) Initially, only the second fluid source, saliva inoculated with MRSA (1×10^9 CFU/ml), was used to contaminate the endotracheal tube. The inoculated fluid continuously flowed through IV tubing directly through the endotracheal tube for 60 minutes to form a biofilm on the tube. Fluid flow was then stopped and the tubing was then reconfigured as shown in FIG. 7 so that oxygen could be introduced. In these test runs, 100 mg/L mucin was added to the saliva. The fluid mixture continuously flowed through the catheter for 48 hours before fluid flow was discontinued to determine the effect of mucin on the bacterial resistance of the biofilm formed on the endotracheal tube. In all, four runs were completed at 0 mg/L mucin (control), 100 mg/L mucin, 500 mg/L mucin and 1000 mg/L mucin. After each run, the endotracheal tube was cut aseptically into one cm segments. The segments were transferred to test tubes containing one ml saline and the adherent cells were dislodges by sonication in an aquasonic device, vortexed for about one minute, and then counted on Tropic soya Agar.
# The results of this study are shown in FIG. 18, which depicts the number of MRSA colony forming units per unit of surface area (CFU/cm^2) on the tube for each mucin concentration. […] The log10 reduction of colonized MRSA was 0.5, 3 (P=0.0001) and 3.5 (P=0.0001) at 100, 500 and 1000 mg/L of mucin, respectively. […] This pathogen plays a significant role in the onset of […] associated pneumonia by causing sustained tracheal colonization.
# MRSA [4] = experiment: Effect of albumin coating on colonization of MRSA in endotracheal tube model; format: cell-based, Staphylococcus aureus
# From the text: A system as shown in FIG. 7 was used in this study. Artificial saliva was placed in a sealed bottle as the second fluid source 609. The first fluid source was provided by an oxygen tank used to saturate the artificial saliva with oxygen. A pump 631 was used to deliver the saliva to an endotracheal tube 3 positioned in the sampling apparatus 1. Each endotracheal tube was pretreated by coating the tube with undiluted bovine serum albumin, except for the untreated tube used as a control.
# as §4, with “of albumin” for “of mucin”, “the colonization” for “the bacterial resistance”, “of MRSA” for “of the biofilm formed”, “tube. […]” for “tube. In all, four runs were completed at 0 mg/L mucin (control), 100 mg/L mucin, 500 mg/L mucin and 1000 mg/L mucin. After each run, the endotracheal tube was cut aseptically into one cm segments.”, “Agar. […]” for “Agar.”
molecule,measurement,setting,value
"OCl [SHC, sodium hypochlorite]",biofilm kill (biocide concentration required to kill 50% of bacteria that grew in the biofilm),Burkholderia cepacia,nearly identical effect
same,planktonic cell kill (biocide concentration required to kill 100% of bacteria present as planktonic cells),Burkholderia cepacia,performed comparably and were more effective than hydrogen peroxide
same,biofilm kill (biocide concentration required to kill 50% of bacteria that grew in the biofilm),Pseudomonas aeruginosa,PAA>SHC>GLT>hydrogen peroxide
same,planktonic cell kill (biocide concentration required to kill 100% of bacteria present as planktonic cells),Pseudomonas aeruginosa,PAA and GLT performed comparably and were more effective than hydrogen peroxide and SHC
same,biofilm kill (biocide concentration required to kill 50% of bacteria that grew in the biofilm),[1],nearly identical effect
same,planktonic cell kill (biocide concentration required to kill 100% of bacteria present as planktonic cells),[1],GLT was somewhat more effective in killing planktonic cells as compared to SHC or PAA
same,biofilm kill (biocide concentration required to kill 50% of bacteria that grew in the biofilm),[2],PAA>GLT>hydrogen peroxide>SHC
same,biofilm kill (biocide concentration required to kill 50% of bacteria that grew in the biofilm),Staphylococcus epidermis,performed comparably
same,planktonic cell kill (biocide concentration required to kill 100% of bacteria present as planktonic cells),Staphylococcus epidermis,performed similarly in planktonic cell kill and outperformed hydrogen peroxide
OO [hydrogen peroxide],biofilm kill (biocide concentration required to kill 50% of bacteria that grew in the biofilm),Burkholderia cepacia,nearly identical effect
same,planktonic cell kill (biocide concentration required to kill 100% of bacteria present as planktonic cells),Burkholderia cepacia,"SHC, PAA and GLT performed comparably and were more effective than hydrogen peroxide"
same,biofilm kill (biocide concentration required to kill 50% of bacteria that grew in the biofilm),Pseudomonas aeruginosa,PAA>SHC>GLT>hydrogen peroxide
same,planktonic cell kill (biocide concentration required to kill 100% of bacteria present as planktonic cells),Pseudomonas aeruginosa,PAA and GLT performed comparably and were more effective than hydrogen peroxide and SHC
same,biofilm kill (biocide concentration required to kill 50% of bacteria that grew in the biofilm),[1],nearly identical effect
same,planktonic cell kill (biocide concentration required to kill 100% of bacteria present as planktonic cells),[1],GLT was somewhat more effective in killing planktonic cells as compared to SHC or PAA and considerably more effective than hydrogen peroxide
same,biofilm kill (biocide concentration required to kill 50% of bacteria that grew in the biofilm),[2],PAA>GLT>hydrogen peroxide>SHC
same,effectiveness as compared to the other biocides,Enterococcus faecalis,relatively uneffective
same,biofilm kill (biocide concentration required to kill 50% of bacteria that grew in the biofilm),Staphylococcus epidermis,performed comparably
same,planktonic cell kill (biocide concentration required to kill 100% of bacteria present as planktonic cells),Staphylococcus epidermis,"SHC, PAA and GLT performed similarly in planktonic cell kill and outperformed hydrogen peroxide"
mucin,log10 reduction of colonized MRSA,MRSA [3]; 100 mg/L of mucin in oxygen-saturated artificial saliva,0.5 log10
same,log10 reduction of colonized MRSA,"MRSA [3]; 500 mg/L of mucin in oxygen-saturated artificial saliva, P=0.0001",3 log10
same,log10 reduction of colonized MRSA,"MRSA [3]; 1000 mg/L of mucin in oxygen-saturated artificial saliva, P=0.0001",3.5 log10
same,colonization of MRSA on endotracheal tubes (in words),"MRSA [3]; mucin 100-1000 mg/L in artificial saliva, in vitro, FIG. 18",effective in decreasing the colonization of MRSA on endotracheal tubes
bovine serum albumin,MRSA colonization of endotracheal tubes (in words),"MRSA [4]; albumin coating of endotracheal tube, FIG. 19",increased significantly
same,log10 increase of colonized cells,"MRSA [4]; whole tube coating with albumin, 100 mg/L mucin in saliva, 48 hours flow, versus uncoated tube, P<0.0001",2.4 log10
